Assay results from patent US20230181599A1, “PROGESTOGEN FORMULATIONS AND USES THEREOF” (Shenzhen Evergreen Therapeutics Co., Ltd, priority 2020, published 2023).

Legend:
Body weight of COPD rats = type: in vivo, Wistar rats; settings: at 24 weeks; for weight increase: vs model group / BUD alone groups
Text: Inhibition of weight increase was lower in 17-HPC group than in the same dose BUD group.

[1] = test system: smoke exposure-induced COPD rats; experiment: Lung function (FEV0.2/FVC, small animal spirometer) in smoke exposure-induced COPD rats; type: in vivo, Wistar rats; settings: CS-exposed rats, nebulized drug; compared with the model group
Method: (§1) Seventy-two Wistar rats were randomly divided into the blank control group, model group, 17-HPC (0.5 mg/ml, 0.25 mg/ml and 0.1 mg/ml) groups, BUD (0.5 mg/ml and 0.1 mg/ml) groups, and combination treatment (0.5 mg/ml BUD+0.25 mg/ml 17-HPC and 0.1 mg/ml BUD+0.25 mg/ml 17-HPC) groups. Drug concentration is the nebulized solution concentration. Lung function (forced vital capacity) of rats was measured using the small animal spirometer, and differential count in the BALF was determined under the microscope. Serum and BALF cytokine (IL-6, IL-17, TNF-α and IL-β) levels were measured by ELISA. Inflammatory cell infiltration area and MLI in rat lung tissues were determined by HE staining. Lung function of rats was measured using the small animal spirometer after 24 weeks of CS exposure.

[2] = test system: smoke exposure-induced COPD rats; experiment: Differential count in BALF (neutrophils) of COPD rats; type: in vivo, Wistar rats; settings: CS-exposed rats, nebulized drug
Method: (§2) Seventy-two Wistar rats were randomly divided into the blank control group, model group, 17-HPC (0.5 mg/ml, 0.25 mg/ml and 0.1 mg/ml) groups, BUD (0.5 mg/ml and 0.1 mg/ml) groups, and combination treatment (0.5 mg/ml BUD+0.25 mg/ml 17-HPC and 0.1 mg/ml BUD+0.25 mg/ml 17-HPC) groups. Drug concentration is the nebulized solution concentration. Lung function (forced vital capacity) of rats was measured using the small animal spirometer, and differential count in the BALF was determined under the microscope. Serum and BALF cytokine (IL-6, IL-17, TNF-α and IL-β) levels were measured by ELISA. Inflammatory cell infiltration area and MLI in rat lung tissues were determined by HE staining. […] The efficacy of high dose BUD was equivalent to that of high dose BUD+17-HPC.

[3] = test system: TNF-α, IL-1β, IL-6 and IL-17; experiment: Serum and BALF cytokine levels by ELISA in COPD rats; type: in vivo, Wistar rats; settings: different doses, aside from the low dose (0.1 mg/ml) 17-HPC group
Method: as §1, with “To examine the in vitro and in vivo efficacy of 17-HPC inhalation in chronic obstructive pulmonary disease (COPD) rats, a rat model of COPD was established by exposing Wistar rats to CS for 1 hour every day for a total of 180 days. Seventy-two” for “Seventy-two”, “staining.” for “staining. Lung function of rats was measured using the small animal spirometer after 24 weeks of CS exposure.”

[4] = test system: smoke exposure-induced COPD rats; experiment: HE staining of lung tissue: inflammatory cell infiltration area and MLI in COPD rats; type: in vivo, Wistar rats
Method: as §2

[5] = Seven-day inhalation toxicity study in rats (GLP); type: in vivo, Sprague-Dawley rats; settings: both sexes, Sprague-Dawley, rat, in vivo, inhaled or intranasal; inhalation, 7 consecutive days, rats; preliminary results; read-out: no observed adverse effect level (NOAEL)
Method: (§3) A 7-day inhalation toxicity study in rats was conducted under GLP conditions. In this study, aerosolized 17-HPC was administered to Sprague-Dawley rats (10/sex/group) at 8, 24, and 72 mg/kg/day for 7 consecutive days. A control group of rats was dosed with aerosolized vehicle. Animals were observed daily for clinical signs. Body weight and food consumption were recorded at pretest, and then on Days 1, 4, and 7. In order to evaluate reversibility of 17-HPC treatment, a satellite rat group (5/sex/group) was dosed by inhalation at 72 mg/kg/day for 7 days, and then was sacrificed on Day 14. Except for the rats in the satellite group, all animals were sacrificed on Day 8. Hematology and biochemistry examinations were performed at the end of the study. Organ weight, gross pathology, and histopathology evaluations were performed.
(§4) Histopathological examinations on the animal tissues from the 24 and 72 mg/kg/day groups have not been completed prior to submission of this pre-IND package.
(§5) Based on the preliminary results of this study, inhalational administration of 17-HPC at 8 mg/kg/day (48 mg/m^2/day) was determined as the no observed adverse effect level (NOAEL) The proposed clinical study is a single dose inhalation study starting at a dose level of 300 μg, which is approximately 6 μg/kg/day (222 μg/m^2/day) based on a human body weight of 50 kg/person. Therefore, the NOAEL generated in this inhalation study is approximately 216 times greater than the proposed initial clinical dose based on body surface areas.

Sprague-Dawley rats = experiment: Seven-day inhalation toxicity study in rats (GLP); type: in vivo
Method: as §3, §4, §5

[6] = PK of oral formulations of PR2005 in female dogs, relative bioavailability vs intramuscular injection (MAKENA); type: in vivo
Text: This study determined the pharmacokinetic parameters of the test drug PR2005 (also referred to herein as 17-HPC) in different formulations after oral gavage or capsule administrations in dogs. This study further determined the relative bioavailability of the test drug PR2005 in each formulation, compared to intramuscular injection solution (MAKENA®).
PK parameters were estimated, including maximum plasma drug concentration (Cmax), time to reach Cmax (Tmax), time delay in absorption process (Tlag), area under the plasma concentration-time curve from time 0 to the last quantifiable data point (AUClast), area under the plasma concentration-time curve from time zero to infinity (AUCinf), plasma half-life (t1/2), and apparent plasma clearance (CL/F), apparent volume of distribution (Vz/F). All these parameters were computed using standard non-compartmental methods of analysis. Geometric mean and CV % are reported for most of PK parameters, and median with range is reported for Tmax and Tlag. Plasma PR2005 PK data was analyzed in Pheonix WinNonLin 8.1 (Certara USA, Inc.).
Log-transformed values of AUCinf were analyzed using a linear mixed-effects model. Least squares mean (LSM) for each treatment group and 90% confidence interval (CI) for the mean of the pairwise differences were estimated using this model. After back transformation from the log scale, estimates of geometric LSM and 90% CI for the ratio of means were calculated. Relative bioavailability (Fr %) was calculated as the ratio of dose normalized geometric least square mean (LSM) for test formulation and IM solution: […]
PR2005 250 mg intramuscular injection: 250 mg 17-HPC, 28.6% v/v of castor oil (CAS 8001-79-4), 46% v/v of benzyl benzoate (CAS 120-51-4), and 2% v/v of benzyl alcohol.
PR2005 250 mg oral (powder in capsules): 20% w/w of 17-HPC and 80% w/w mannitol. The particle size of 17-HPC is from about 2 to about 10 μm.
PR2005 250 mg Suspension #1: 30% w/w of 17-HPC and 70% castor oil (CAS 8001-79-4). The particle size of 17-HPC is from about 5 to about 30 μm.
PR2005 250 mg and 750 mg Solution #3: 30% w/w of 17-HPC, 63% w/w of benzyl benzoate (CAS 120-51-4), and 7% w/w of macrogolglycerol ricinoleate (CAS 61791-12-6).
The test items were administered on the first day of each trial. Each animal group was rotated through each trial with at least 4 days between trials and a […] 7-day washout between each test item administration.

[7] = Saxton D J et al. 2004; cited from earlier work
[8] = biological target: ABCB1 efflux transporters (Homo sapiens, UniProt P08183); settings: Bloise, E., et al. 2016; cited from earlier work
[9] = 250 mg intramuscular injection, geometric mean

Sequence of ABCB1 efflux transporters (P08183 whole entry): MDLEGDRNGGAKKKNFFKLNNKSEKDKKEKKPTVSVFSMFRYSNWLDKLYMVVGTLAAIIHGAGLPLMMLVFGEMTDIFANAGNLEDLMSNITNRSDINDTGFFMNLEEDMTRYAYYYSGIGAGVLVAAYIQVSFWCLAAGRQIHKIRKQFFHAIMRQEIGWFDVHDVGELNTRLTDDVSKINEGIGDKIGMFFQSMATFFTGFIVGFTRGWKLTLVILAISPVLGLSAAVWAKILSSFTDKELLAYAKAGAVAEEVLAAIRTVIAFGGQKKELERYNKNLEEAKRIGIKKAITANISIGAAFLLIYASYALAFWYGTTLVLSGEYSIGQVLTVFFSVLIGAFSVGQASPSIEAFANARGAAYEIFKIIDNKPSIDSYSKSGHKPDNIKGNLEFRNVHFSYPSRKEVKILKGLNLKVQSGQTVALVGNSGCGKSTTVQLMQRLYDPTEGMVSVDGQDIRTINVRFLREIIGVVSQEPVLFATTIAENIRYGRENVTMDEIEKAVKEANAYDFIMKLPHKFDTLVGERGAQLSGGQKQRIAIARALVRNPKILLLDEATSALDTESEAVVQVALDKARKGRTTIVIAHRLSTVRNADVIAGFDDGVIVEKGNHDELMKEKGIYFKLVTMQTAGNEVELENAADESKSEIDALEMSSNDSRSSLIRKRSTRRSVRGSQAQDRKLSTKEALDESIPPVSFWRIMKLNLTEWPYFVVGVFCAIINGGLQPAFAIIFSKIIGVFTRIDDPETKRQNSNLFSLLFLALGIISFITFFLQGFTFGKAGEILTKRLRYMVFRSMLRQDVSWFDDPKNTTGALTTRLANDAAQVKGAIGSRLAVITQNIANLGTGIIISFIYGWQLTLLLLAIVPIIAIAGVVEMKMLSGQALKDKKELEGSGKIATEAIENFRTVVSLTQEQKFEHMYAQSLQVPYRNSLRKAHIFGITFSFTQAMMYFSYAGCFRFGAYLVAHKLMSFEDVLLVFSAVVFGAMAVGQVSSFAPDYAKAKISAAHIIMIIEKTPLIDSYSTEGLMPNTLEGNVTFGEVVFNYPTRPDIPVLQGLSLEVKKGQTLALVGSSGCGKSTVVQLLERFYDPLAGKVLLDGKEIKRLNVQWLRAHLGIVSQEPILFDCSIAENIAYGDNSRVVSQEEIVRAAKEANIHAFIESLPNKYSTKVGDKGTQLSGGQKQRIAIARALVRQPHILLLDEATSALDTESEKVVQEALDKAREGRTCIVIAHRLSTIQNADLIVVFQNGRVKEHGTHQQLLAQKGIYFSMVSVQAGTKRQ

Compound | weight increase (Body weight of COPD rats) | FEV0.2/FVC % [1] | percentage of neutrophils in rat BALF [2] | TNF-α, IL-1β, IL-6 and IL-17 levels in the BALF [3] | inflammatory cell infiltration in lung tissue sections (HE staining) ([4]; 17-HPC groups vs model rats) | MLI ([4]; aside from the 0.1 mg/ml 17-HPC group, dose-dependent) | inflammatory cell infiltration in the lung tissues ([4]; high dose 17-HPC) | Inhibition of weight increase vs same dose BUD group (Body weight of COPD rats) | NOAEL at 7 days [5] | no observed adverse effect level (NOAEL), body surface area (Sprague-Dawley rats; inhalation, 7 days, rats) | NOAEL relative to the proposed initial clinical dose (300 μg) based on body surface areas (Sprague-Dawley rats; rat, in vivo) | pathological alterations after a 7-day recovery period (Sprague-Dawley rats; rat, in vivo, 72 mg/kg/day) | Cl/F [6, 9] | V [6, 9] | half-life ([6]; female, dog, plasma, im, 250 mg intramuscular injection, geometric mean) | Tmax ([6]; female, dog, plasma, im, 250 mg intramuscular injection, median) | dose proportionality of Cmax and AUC, 250 to 750 mg ([6]; oral) | activity when administered orally [7] | ABCB1 efflux transporter substrate [8]
CCCC1O[C@@H]2C[C@H]3[C@@H]4CCC5=CC(=O)C=C[C@]5(C)[C@H]4[C@@H](O)C[C@]3(C)[C@]2(C(=O)CO)O1 (some centres unmarked) [BUD, budesonide] | inhibited weight increase | – | – | – | – | – | – | – | – | – | – | – | – | – | – | – | – | – | –
CCCCCC(=O)O[C@]1(C(C)=O)CC[C@H]2[C@@H]3CCC4=CC(=O)CC[C@]4(C)[C@H]3CC[C@@]21C [Solution 17-HPC, 17-[(1-Oxohexyl)oxyl]-pregn-4-ene-3,20-dione] | no difference in weight increase | improved FEV0.2/FVC % in a dose-dependent manner | reduced the percentage of neutrophils | downregulate | attenuated | decreased | antagonize inflammatory cell infiltration | lower | 8 mg/kg/day | 48 mg/m^2/day | approximately 216 times | no remarkable pathological alterations | 35.68 L/h | 2485 L | 48.4 h | 48 h | generally greater than dose proportional | inactive | substrate of ABCB1 efflux transporters
